Measurements as given in paper PMC4907692, “Engineering vanilloid-sensitivity into the rat TRPV2 channel” (eLife, 2016).

Tests used:
Format in all cases: cell-based
Conditions in all cases: 100 nM RTx
[1] = biological target: T1, TRPV1 S512F (Rattus norvegicus, UniProt O35433, S512F); experiment: Two-electrode voltage-clamp in Xenopus oocytes, TRPV1 S512F
T1 construct: expressed in transfected cells; host or cells: Xenopus oocytes (cRNA injection)
From the text: (§1) To further investigate the putative vanilloid binding pocket in TRPV1, we inspected the cryo-EM structure of TRPV1, looking for residues that are located nearby to the putative RTx density (Figure 1B; regions/residues highlighted in yellow) and that differ between TRPV1 and TRPV2 channels (Figure 3—figure supplement 1; regions highlighted in magenta). […] To quantify the contribution of each of these residues to TRPV1 channel activation by RTx under our experimental conditions, we mutated each to the corresponding residue in TRPV2. We then expressed each construct in oocytes and used the two electrode voltage-clamp technique to study activation by RTx and by the non-specific TRPV channel activator 2-APB. We recorded time courses for channel activation by each agonist while stepping the membrane potential from −60 to +60 mV every 3 s from a holding potential of 0 mV using an external recording solution containing 100 mM KCl (internal K^+ concentration in a healthy oocyte is 100 mM) (Figure 3A, left). We also recorded current-voltage (I-V) relations by stepping over a wider range of voltages in the absence and presence of activators, or in the presence of ruthenium red (RR), a non-specific inhibitor of TRP channels (Figure 3A, right). […]

[2] = biological target: T2, TRPV1 S512F/T550L (Rattus norvegicus, UniProt O35433, S512F/T550L); experiment: Two-electrode voltage-clamp in Xenopus oocytes, TRPV1 S512F/T550L
T2 construct: expressed in transfected cells; host or cells: Xenopus oocytes (cRNA injection)
T2 sequence (O35433 whole entry S512F/T550L): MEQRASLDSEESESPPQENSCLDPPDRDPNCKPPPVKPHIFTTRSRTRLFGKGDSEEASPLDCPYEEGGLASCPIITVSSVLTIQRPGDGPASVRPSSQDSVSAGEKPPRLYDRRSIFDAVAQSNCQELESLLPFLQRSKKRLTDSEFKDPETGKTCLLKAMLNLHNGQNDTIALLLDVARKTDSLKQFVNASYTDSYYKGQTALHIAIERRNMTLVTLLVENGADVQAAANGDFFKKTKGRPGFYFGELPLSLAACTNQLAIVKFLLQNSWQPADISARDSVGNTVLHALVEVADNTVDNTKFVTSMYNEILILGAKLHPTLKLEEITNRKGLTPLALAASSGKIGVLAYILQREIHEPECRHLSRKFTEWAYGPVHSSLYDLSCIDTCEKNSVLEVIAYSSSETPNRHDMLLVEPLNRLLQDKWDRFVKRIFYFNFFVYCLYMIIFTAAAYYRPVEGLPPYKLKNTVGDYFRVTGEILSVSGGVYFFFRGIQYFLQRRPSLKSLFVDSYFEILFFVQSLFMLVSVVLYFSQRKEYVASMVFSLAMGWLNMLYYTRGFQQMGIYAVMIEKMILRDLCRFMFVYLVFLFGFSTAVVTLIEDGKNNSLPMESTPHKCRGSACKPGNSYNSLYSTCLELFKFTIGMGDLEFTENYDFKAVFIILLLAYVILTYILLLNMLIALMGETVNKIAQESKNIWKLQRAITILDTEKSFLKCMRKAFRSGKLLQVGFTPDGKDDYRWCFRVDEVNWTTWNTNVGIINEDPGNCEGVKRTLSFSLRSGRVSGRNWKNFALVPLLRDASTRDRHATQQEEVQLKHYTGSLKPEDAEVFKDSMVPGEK
From the text: as §1

[3] = biological target: T3, TRPV2 QM (Rattus norvegicus, UniProt Q9WUD2, F472S/L507M/L510T/Q530E); experiment: Two-electrode voltage-clamp in Xenopus oocytes, TRPV2 QM
T3 construct: expressed in transfected cells; host or cells: Xenopus oocytes (cRNA injection)
T3 sequence (Q9WUD2 1-761 F472S/L507M/L510T/Q530E): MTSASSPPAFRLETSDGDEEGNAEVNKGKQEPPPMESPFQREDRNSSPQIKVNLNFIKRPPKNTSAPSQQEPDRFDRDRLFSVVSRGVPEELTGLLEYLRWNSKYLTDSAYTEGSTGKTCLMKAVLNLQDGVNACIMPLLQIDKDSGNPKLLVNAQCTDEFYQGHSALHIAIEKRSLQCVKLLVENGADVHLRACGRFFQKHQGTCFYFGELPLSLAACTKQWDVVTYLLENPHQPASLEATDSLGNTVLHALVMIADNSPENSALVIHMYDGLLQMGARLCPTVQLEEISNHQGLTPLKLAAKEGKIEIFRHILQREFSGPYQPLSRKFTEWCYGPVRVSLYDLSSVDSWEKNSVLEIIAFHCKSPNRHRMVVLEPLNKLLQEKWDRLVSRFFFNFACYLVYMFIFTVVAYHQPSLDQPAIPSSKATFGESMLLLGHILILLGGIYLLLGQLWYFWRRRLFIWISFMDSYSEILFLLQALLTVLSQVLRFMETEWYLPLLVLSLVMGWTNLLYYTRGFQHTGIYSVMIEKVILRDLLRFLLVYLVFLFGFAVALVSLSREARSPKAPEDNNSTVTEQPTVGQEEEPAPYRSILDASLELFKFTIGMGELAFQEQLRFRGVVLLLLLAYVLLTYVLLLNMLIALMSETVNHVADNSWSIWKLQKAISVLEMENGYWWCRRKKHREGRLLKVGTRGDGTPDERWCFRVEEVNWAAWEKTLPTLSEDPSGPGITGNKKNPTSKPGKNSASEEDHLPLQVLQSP
From the text: as §1

T1 sequence (O35433 whole entry S512F): as the sequence (O35433 whole entry S512F/T550L) above, with L550T counted along it

C=C(C)[C@]12C[C@@H](C)[C@@]34O[C@](Cc5ccccc5)(O[C@@H]1[C@@H]3C=C(COC(=O)Cc1ccc(O)c(OC)c1)C[C@]1(O)C(=O)C(C)=C[C@@H]41)O2 [RTx, resiniferatoxin]
dissociation of RTx after removal from the recording chamber [1]: could readily see dissociation of RTx | channel activation by RTx [2]: lost sensitivity | channel activation by RTx [3]: robustly activated
